Measured values as given in patent publication US8829007B2 (priority 2009, dated 2014).
Like-named read-outs stand apart in the source and are kept apart here.

How the values were obtained:
[1] = test system: influenza A virus (A/PR/8/34); experiment: microbe, parasite or virus in culture; format: cell-based; conditions: Influenza A virus, PR/8, MDCK, read-out: IC50 (mean all)
[2] = test system: A/PR/8/34 influenza virus; experiment: microbe, parasite or virus in culture; format: cell-based
[3] = MDCK cells infected with A/PR/8/34, cell protection (CPE)
[4] = Influenza A virus, PR/8, MDCK, MDCK cells infected with A/PR/8/34, bDNA viral RNA; read-out: EC50 (mean all)
[5] = Influenza A virus, PR/8, MDCK, read-out: EC50 (mean all)
[6] = Influenza A virus, PR/8, MDCK; read-out: EC50 (mean all)

SMILES	IC50 [1, 3]	EC50 [2, 4]	IC50 [1]	EC50 [2, 5]	EC50 [2, 6]
C=CCNC(=O)N1CCC[C@@H](CNc2nc(-c3c[nH]c4ncc(Cl)cc34)ncc2F)C1 [Compound 39, (S)—N-allyl-3-((2-(5-chloro-1H-pyrrolo[2,3-b]pyridin-3-yl)-5-fluoropyrimidin-4-ylamino)methyl)piperidine-1-carboxamide]	< 5 µM	< 5 µM	–	–	–
CC=CC(=O)N1CCC[C@@H](CNc2nc(-c3c[nH]c4ncc(Cl)cc34)ncc2F)C1 [Compound 41, (S)-1-(3-((2-(5-chloro-1H-pyrrolo[2,3-b]pyridin-3-yl)-5-fluoropyrimidin-4-ylamino)methyl)piperidin-1-yl)but-2-en-1-one]	–	–	< 5 µM	< 5 µM	–
O=C(CC(F)(F)F)N1CCC[C@@H](CNc2nc(-c3c[nH]c4ncc(Cl)cc34)ncc2F)C1 [Compound 44, (S)-1-(3-((2-(5-chloro-1H-pyrrolo[2,3-b]pyridin-3-yl)-5-fluoropyrimidin-4-ylamino)methyl)piperidin-1-yl)-3,3,3-trifluoropropan-1-one]	< 5 µM	< 5 µM	–	–	–
COCC(=O)N1CCC[C@@H](CNc2nc(-c3c[nH]c4ncc(Cl)cc34)ncc2F)C1 [Compound 45, (S)-1-(3-((2-(5-chloro-1H-pyrrolo[2,3-b]pyridin-3-yl)-5-fluoropyrimidin-4-ylamino)methyl)piperidin-1-yl)-2-methoxyethanone]	< 5 µM	< 5 µM	–	–	–
O=C(Cc1cccnc1)N1CCC[C@@H](CNc2nc(-c3c[nH]c4ncc(Cl)cc34)ncc2F)C1 [Compound 47, (S)-1-(3-((2-(5-chloro-1H-pyrrolo[2,3-b]pyridin-3-yl)-5-fluoropyrimidin-4-ylamino)methyl)piperidin-1-yl)-2-(pyridin-3-yl)ethanone]	< 5 µM	< 5 µM	–	–	–
C=CCC(=O)N1CCC[C@@H](CNc2nc(-c3c[nH]c4ncc(Cl)cc34)ncc2F)C1 [Compound 49, (S)-1-(3-((2-(5-chloro-1H-pyrrolo[2,3-b]pyridin-3-yl)-5-fluoropyrimidin-4-ylamino)methyl)piperidin-1-yl)but-3-en-1-one]	< 5 µM	< 5 µM	–	–	–
O=C1CC[C@H](C(=O)N2CCC[C@@H](CNc3nc(-c4c[nH]c5ncc(Cl)cc45)ncc3F)C2)O1 [Compound 51, (R)-5-((S)-3-((2-(5-chloro-1H-pyrrolo[2,3-b]pyridin-3-yl)-5-fluoropyrimidin-4-ylamino)methyl)piperidine-1-carbonyl)dihydrofuran-2(3H)-one]	< 5 µM	< 5 µM	–	–	–
C#CCCC(=O)N1CCC[C@@H](CNc2nc(-c3c[nH]c4ncc(Cl)cc34)ncc2F)C1 [Compound 52, (S)-1-(3-((2-(5-chloro-1H-pyrrolo[2,3-b]pyridin-3-yl)-5-fluoropyrimidin-4-ylamino)methyl)piperidin-1-yl)pent-4-yn-1-one]	< 5 µM	< 5 µM	–	–	–
O=C(O)[C@H]1CC[C@@H](C(=O)N2CCC[C@H](CNc3nc(-c4c[nH]c5ncc(Cl)cc45)ncc3F)C2)C1 [Compound 55, (1S,3R)-3-((R)-3-((2-(5-chloro-1H-pyrrolo[2,3-b]pyridin-3-yl)-5-fluoropyrimidin-4-ylamino)methyl)piperidine-1-carbonyl)cyclopentanecarboxylic acid]	< 5 µM	< 5 µM	–	–	–
O=C(Cc1ccccc1)N1CCC[C@H](CNc2nc(-c3c[nH]c4ncc(Cl)cc34)ncc2F)C1 [Compound 56, (R)-1-(3-((2-(5-chloro-1H-pyrrolo[2,3-b]pyridin-3-yl)-5-fluoropyrimidin-4-ylamino)methyl)piperidin-1-yl)-2-phenylethanone]	< 5 µM	< 5 µM	–	–	–
CC(C)=CC(=O)N1CCC[C@H](CNc2nc(-c3c[nH]c4ncc(Cl)cc34)ncc2F)C1 [Compound 57, (R)-1-(3-((2-(5-chloro-1H-pyrrolo[2,3-b]pyridin-3-yl)-5-fluoropyrimidin-4-ylamino)methyl)piperidin-1-yl)-3-methylbut-2-en-1-one]	–	–	< 5 µM	< 5 µM	–
O=S(=O)(/C=C/c1ccccc1)N1CCC[C@H](CNc2nc(-c3c[nH]c4ncc(Cl)cc34)ncc2F)C1 [Compound 60, (R,E)-2-(5-chloro-1H-pyrrolo[2,3-b]pyridin-3-yl)-5-fluoro-N-((1-(styrylsulfonyl)piperidin-3-yl)methyl)pyrimidin-4-amine]	< 5 µM	< 5 µM	–	–	–
O=S(=O)(C1CC1)N1CCC[C@H](CNc2nc(-c3c[nH]c4ncc(Cl)cc34)ncc2F)C1 [Compound 61, (R)-2-(5-chloro-1H-pyrrolo[2,3-b]pyridin-3-yl)-N-((1-(cyclopropylsulfonyl)piperidin-3-yl)methyl)-5-fluoropyrimidin-4-amine]	< 5 µM	< 5 µM	–	–	–
COc1cccc(S(=O)(=O)N2CCC[C@H](CNc3nc(-c4c[nH]c5ncc(Cl)cc45)ncc3F)C2)c1 [Compound 62, (R)-2-(5-chloro-1H-pyrrolo[2,3-b]pyridin-3-yl)-5-fluoro-N-((1-(3-methoxyphenylsulfonyl)piperidin-3-yl)methyl)pyrimidin-4-amine]	< 5 µM	< 5 µM	–	–	–
O=S(=O)(c1ccc(F)cc1)N1CCC[C@H](CNc2nc(-c3c[nH]c4ncc(Cl)cc34)ncc2F)C1 [Compound 64, (R)-2-(5-chloro-1H-pyrrolo[2,3-b]pyridin-3-yl)-5-fluoro-N-((1-(4-fluorophenylsulfonyl)piperidin-3-yl)methyl)pyrimidin-4-amine]	5 to 20 µM	< 5 µM	–	–	–
O=S(=O)(c1cccc(F)c1)N1CCC[C@H](CNc2nc(-c3c[nH]c4ncc(Cl)cc34)ncc2F)C1 [Compound 65, (R)-2-(5-chloro-1H-pyrrolo[2,3-b]pyridin-3-yl)-5-fluoro-N-((1-(3-fluorophenylsulfonyl)piperidin-3-yl)methyl)pyrimidin-4-amine]	< 5 µM	< 5 µM	–	–	–
Cc1cccc(S(=O)(=O)N2CCC[C@H](CNc3nc(-c4c[nH]c5ncc(Cl)cc45)ncc3F)C2)c1 [Compound 66, (R)-2-(5-chloro-1H-pyrrolo[2,3-b]pyridin-3-yl)-5-fluoro-N-((1-(m-tolylsulfonyl)piperidin-3-yl)methyl)pyrimidin-4-amine]	< 5 µM	< 5 µM	–	–	–
O=S(=O)(c1cccc(Br)c1)N1CCC[C@H](CNc2nc(-c3c[nH]c4ncc(Cl)cc34)ncc2F)C1 [Compound 67, (R)—N-((1-(3-bromophenylsulfonyl)piperidin-3-yl)methyl)-2-(5-chloro-1H-pyrrolo[2,3-b]pyridin-3-yl)-5-fluoropyrimidin-4-amine]	< 5 µM	< 5 µM	–	–	–
O=C(Oc1ccccc1)N1CCC[C@H](CNc2nc(-c3c[nH]c4ncc(Cl)cc34)ncc2F)C1 [Compound 68, (R)-phenyl 3-((2-(5-chloro-1H-pyrrolo[2,3-b]pyridin-3-yl)-5-fluoropyrimidin-4-ylamino)methyl)piperidine-1-carboxylate]	–	–	5 to 20 µM	–	< 5 µM
COc1ccccc1OC(=O)N1CCC[C@H](CNc2nc(-c3c[nH]c4ncc(Cl)cc34)ncc2F)C1 [Compound 69, (R)-2-methoxyphenyl 3-((2-(5-chloro-1H-pyrrolo[2,3-b]pyridin-3-yl)-5-fluoropyrimidin-4-ylamino)methyl)piperidine-1-carboxylate]	–	–	< 5 µM	–	< 5 µM
